Activity calls are given as the source filed them. No cut-off for these calls is given here.
Assays:
[1] = molecular target: T1, Solute carrier family 22 member 12 (Homo sapiens, UniProt Q96S37); assay: Inhibition of URAT1 (unknown origin)-mediated uric acid uptake at 3 uM relative to control
T1 sequence (Q96S37 whole entry): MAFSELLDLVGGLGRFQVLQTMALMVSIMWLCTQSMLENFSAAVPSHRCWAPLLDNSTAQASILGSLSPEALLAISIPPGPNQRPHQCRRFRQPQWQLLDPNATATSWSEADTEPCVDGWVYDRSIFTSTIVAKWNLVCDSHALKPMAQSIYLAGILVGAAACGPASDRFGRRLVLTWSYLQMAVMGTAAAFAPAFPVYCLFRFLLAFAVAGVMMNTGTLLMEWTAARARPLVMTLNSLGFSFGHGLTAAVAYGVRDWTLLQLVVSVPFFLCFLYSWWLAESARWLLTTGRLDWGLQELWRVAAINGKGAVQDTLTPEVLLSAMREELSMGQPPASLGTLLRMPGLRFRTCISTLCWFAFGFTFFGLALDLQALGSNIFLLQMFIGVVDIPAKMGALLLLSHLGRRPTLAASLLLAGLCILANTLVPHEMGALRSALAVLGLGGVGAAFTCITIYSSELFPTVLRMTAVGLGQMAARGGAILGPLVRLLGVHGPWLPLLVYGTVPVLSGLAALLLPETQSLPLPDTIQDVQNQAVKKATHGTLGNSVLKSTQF

[2] = Inhibition of uric acid uptake in human RPTEC; assay type: functional, tissue-based
[3] = Hepatotoxicity assessed as induction of mitochondrial (unknown origin) toxicity by measuring mitochondrial inhibitory activity at 100 uM relative to control; conditions: mitochondria (unknown origin)
[4] = Cmax in rat at 3 mg/kg, po; assay type: ADME, organism-based; parameters: route oral, dose 3 mg/kg; conditions: in vivo
[5] = Drug excretion in rat urine at 3 mg/kg, po measured for 4 hrs; assay type: ADME, organism-based; conditions: read-out: Drug excretion
Cytochrome P450 2C9 = Cytochrome P450 2C9 (Homo sapiens, UniProt P11712); assay: Inhibition of CYP2C9 (unknown origin); assay type: ADME
Sequence of Cytochrome P450 2C9 (P11712 whole entry): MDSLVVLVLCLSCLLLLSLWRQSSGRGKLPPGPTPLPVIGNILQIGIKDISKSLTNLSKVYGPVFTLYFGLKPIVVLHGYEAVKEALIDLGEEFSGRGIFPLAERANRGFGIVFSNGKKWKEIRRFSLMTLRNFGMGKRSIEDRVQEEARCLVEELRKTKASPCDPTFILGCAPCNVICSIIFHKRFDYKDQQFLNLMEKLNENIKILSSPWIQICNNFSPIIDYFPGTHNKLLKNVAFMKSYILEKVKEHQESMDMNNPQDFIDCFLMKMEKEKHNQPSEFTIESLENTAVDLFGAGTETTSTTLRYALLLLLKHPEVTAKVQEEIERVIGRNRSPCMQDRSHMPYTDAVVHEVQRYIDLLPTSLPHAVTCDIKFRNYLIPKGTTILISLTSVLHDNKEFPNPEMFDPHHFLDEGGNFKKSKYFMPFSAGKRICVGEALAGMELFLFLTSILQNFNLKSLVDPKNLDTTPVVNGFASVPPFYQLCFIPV

[6] = Hepatotoxicity assessed as induction of mitochondrial (unknown origin) toxicity by measuring mitochondrial inhibitory activity; conditions: mitochondria (unknown origin)
Sapajus apella = assay: Uricosuric activity in Cebus apella assessed as decrease in plasma urate level at 300 mg/kg, po measured for 24 hrs; assay type: functional, organism-based

| SMILES | inhibition at 3 µM [1] | IC50 [2] | Cmax [4] | dose excreted at 4 h [5] | IC50 (Cytochrome P450 2C9) | inhibition at 100 µM [3] | IC50 [6] | Activity (Sapajus apella) |
| --- | --- | --- | --- | --- | --- | --- | --- | --- |
| N#Cc1cc(C(=O)N2CCCC2)cc(C(F)(F)F)c1O | 66% | > 1000 µM |  |  |  | 18% |  |  |
| N#Cc1cc(C(=O)N2CC=CC2)cc(C2CC2)c1O | 69% | > 1000 µM |  |  |  | -7% |  |  |
| N#Cc1cc(C(=O)N2CC=CC2)cc(Cl)c1O | 66% | > 1000 µM |  |  |  | 5% |  |  |
| O=C(C1=CCCC1)c1cc(Cl)c(O)c(Cl)c1 |  |  |  |  |  |  | 10 µM |  |
| CSc1cc(C(=O)N2CC=CC2)cc(C#N)c1O | 58% | > 1000 µM |  |  |  | 6% |  |  |
| CCc1oc2ccccc2c1C(=O)c1cc(Br)c(O)c(Br)c1 [BENZBROMARONE] | 91% | 6.8 µM |  |  |  |  | 3.1 µM |  |
| N#Cc1cc(C(=O)N2CC=CC2)cc(I)c1O | 79% | > 1000 µM |  |  |  | 8% |  |  |
| N#Cc1cc(C(=O)N2CCC2)cc(C(F)(F)F)c1O | 75% | > 1000 µM |  |  |  | 17% |  |  |
| CCc1cc(C(=O)n2cccc2)cc(C#N)c1O | 83% | > 1000 µM |  |  |  |  | 6.7 µM |  |
| CCCc1cc(C(=O)N2CC=CC2)cc(C(F)(F)F)c1O | 49% | 903 µM |  |  |  | 47% |  |  |
| CC(C)(C)c1cc(C(=O)N2CCC2)cc(C#N)c1O | 71% | > 1000 µM |  |  |  | 41% |  |  |
| Cc1cc(C(=O)N2CC=CC2)cc(C#N)c1O | 25% | > 1000 µM |  |  |  | -10% |  |  |
| O=C(c1cc(Cl)c(O)c(Cl)c1)N1CS(=O)(=O)c2ccccc21 [DOTINURAD] |  |  |  |  | 5.7 µM |  |  |  |
| N#Cc1cc(C(=O)N2CC=CC2)cc(C(F)(F)F)c1O | 83% | 818 µM | 2610 ng/mL | 23% | 52 µM | -1% |  | Active |
| CCc1cc(C(=O)N2CC=CC2)cc(C#N)c1O | 54% | > 1000 µM |  |  |  | 17% | > 100 µM |  |
| CC(C)(C)c1cc(C(=O)N2CCCC2)cc(C#N)c1O | 84% | > 1000 µM |  |  |  | 22% | > 100 µM |  |
| O=C(c1cc(Br)c(O)c(Br)c1)N1CC=CC1 |  |  |  |  |  | 22% | > 100 µM |  |
| O=C(C1=CCCC1)c1cc(Br)c(O)c(Br)c1 |  |  |  |  |  |  | 6.6 µM |  |
| CCCc1cc(C(=O)N2CC=CC2)cc(C#N)c1O | 70% | > 1000 µM |  |  |  | 7% |  |  |

Second part, led by results:

| inhibition at 3 µM [1] | IC50 [2] | Cmax [4] | dose excreted at 4 h [5] | IC50 (Cytochrome P450 2C9) | SMILES | inhibition at 100 µM [3] | IC50 [6] | Activity (Sapajus apella) |
| --- | --- | --- | --- | --- | --- | --- | --- | --- |
| 88% | 137 µM | 2220 ng/mL | 10% | 94 µM | CC1=CCN(C(=O)c2cc(C#N)c(O)c(C(F)(F)F)c2)C1 | 9% |  |  |
| 55% | 272 µM |  |  |  | N#Cc1cc(C(=O)N2CCS(=O)(=O)C2)cc(C(F)(F)F)c1O | -3% |  |  |
| 92% | 257 µM |  |  |  | CC(C)(C)c1cc(C(=O)N2CCSC2)cc(C#N)c1O | 77% | 27 µM |  |
| 72% | 401 µM |  |  |  | N#Cc1cc(C(=O)N2CCSC2)cc(Br)c1O | 23% |  |  |
| 92% | 311 µM |  |  |  | CC(C)(C)c1cc(C(=O)N2CC=CC2)cc(C#N)c1O | 60% | 64 µM |  |
| 67% | 124 µM |  | 9.5% |  | CCc1cc(C(=O)N2CCSC2)cc(C#N)c1O | 25% |  |  |
| 62% | 614 µM |  |  |  | N#Cc1cc(C(=O)N2CCSC2)cc(C#N)c1O | 23% |  |  |
| 84% | 202 µM | 3700 ng/mL | 9% | > 100 µM | N#Cc1cc(C(=O)N2CCSC2)cc(C(F)(F)F)c1O | 29% |  |  |
| 69% | 747 µM |  |  |  | N#Cc1cc(C(=O)N2CC=CC2)cc(Br)c1O | 0% |  |  |
